US10085449B2, “N-[1-((6-chloropyridin-3-yl)methyl)pyridin-2(1H)-ylidene]-2,2,2- trifluoroacetamide for control of agricultural/horticultural pests” (priority 2010, dated 2018)
Where two headings read alike, the source gives them in different places.

Key:
Experiment in all cases: whole plant or invertebrate
Type in all cases: in vivo
[1] = tested on: diamondback moth; conditions: Plutella xylostella, foliar
Experimental: (§1) Leaf discs 5.0 cm in diameter were cut from cabbage plants grown in pots, and these were sprayed with solutions of the inventive compounds at a predetermined concentration prepared to 50% acetone/water (containing 0.05% Tween 20). The treated leaf discs were air dried, following which second-instar larvae were released onto the discs. The leaf discs and larvae were then held in an incubation chamber at 25° C. (16-hour period of light, 8-hour dark period). Three days after released, the numbers of live and dead insects were counted, and the mortality was calculated from the following formula. This was a two-replication test. Mortality (%)=[number of dead insects/(number of live insects+number of dead insects)]×100

[2] = tested on: common cutworm; conditions: for Insecticidal effects (mortality), common cutworm third-instar larvae: foliar application, 500 ppm
Experimental: as §1, with “third-instar” for “second-instar”

[3] = tested on: cotton aphid; conditions: Aphis gossypii, foliar
Experimental: as §1, with “2.0” for “5.0”, “cucumber” for “cabbage”, “first-instar” for “second-instar”

[4] = tested on: western flower thrips; conditions: Frankliniella occidentalis, foliar
Experimental: as §1, with “2.8” for “5.0”, “bean” for “cabbage”, “first-instar” for “second-instar”

[5] = tested on: rice leaf bug; conditions: foliar, 72 h
Experimental: The treated seedlings were air-dried, then each was placed in a glass cylinder and two second-instar rice leaf bug larvae were released within the same glass cylinder. Following release of the insects, the tube was capped and held in an incubation chamber at 25° C. (16-hour period of light, 8-hour dark period). […] Three days after released, the numbers of live and dead insects were counted, and the mortality was calculated from the following formula. Mortality (%)=[number of dead insects/(number of live insects+number of dead insects)]×100

[6] = tested on: small brown planthopper; conditions: Laodelphax striatellus, in Triticum aestivum, 96 h
Experimental: Wheat seedling roots 48 hours after sowing were treated with solutions of the inventive compounds at a predetermined concentration prepared to 10% acetone/water. After allowing the roots to absorb the chemical for 72 hours, ten second-instar small brown planthopper larvae were released onto each seedling. The treated seedlings and larvae were then held in an incubation chamber at 25° C. (16-hour period of light, 8-hour dark period). Four days after released, the numbers of live and dead insects were counted, and the mortality was calculated from the following formula. The test was carried out as two replications. Mortality (%)=[number of dead insects/(number of live insects+number of dead insects)]×100

[7] = tested on: small brown planthopper; conditions: Laodelphax striatellus, 72 h; for pest or weed control at 0.05 mg/pot: 0.05 mg/pot (Table 13)
Experimental: Rice seedlings grown in pots were subjected to soil drenching treatment with solutions of the inventive compounds at a predetermined concentration prepared to 10% acetone/water. Three days following treatment, ten second-instar small brown planthopper larvae were released onto each seedling. The treated seedlings and larvae were then held in an incubation chamber at 25° C. (16-hour period of light, 8-hour dark period). Three days after released, the numbers of live and dead insects were counted, and the mortality was calculated from the following formula. The test was carried out as two replications. Mortality (%)=[number of dead insects/(number of live insects+number of dead insects)]×100

[8] = read-out: Insecticidal effects (mortality), diamondback moth second-instar larvae
[9] = read-out: Insecticidal effects (mortality), cotton aphid first-instar larvae
[10] = read-out: Insecticidal effects (mortality), western flower thrips first-instar larvae
[11] = read-out: Insecticidal effects (mortality), small brown planthopper second-instar larvae
[12] = rice soil drenching, read-out: Small brown planthopper (rice soil drenching), effect
[13] = soil, read-out: Insecticidal effects (mortality), small brown planthopper second-instar larvae

`O=C(N=c1ccccn1Cc1ccc(Cl)nc1)C(F)(F)Cl` [Compound 239, 2-chloro-N-[1-((6-chloropyridin-3-yl)methyl)pyridin-2(1H)-ylidene]-2,2-difluoroacetamide] gave a mortality at 20 ppm [1, 8] of 100%, a mortality at 100 ppm [1, 8] of 100% and a mortality at 500 ppm [1, 8] of 100%. The mortality at 100 ppm ([1]; in Brassica oleracea, 72 h) was no less than 80%, the mortality at 500 ppm ([1]; in Brassica oleracea, 72 h) was no less than 80% and the “Insecticidal effects (mortality), common cutworm third-instar larvae” value (shortened to “Insecticidal effects (mortality)”) [2] was 90. For the same compound, the mortality at 500 ppm ([2]; foliar, 72 h) was no less than 80%, the mortality at 20 ppm [3, 9] was 100% and the mortality at 100 ppm [3, 9] was 100%. For the same compound, the mortality at 500 ppm [3, 9] was 100%, the mortality at 20 ppm ([3]; in Cucumis sativus, 72 h) was no less than 80% and the mortality at 100 ppm ([3]; in Cucumis sativus, 72 h) was no less than 80%. The mortality at 500 ppm ([3]; in Cucumis sativus, 72 h) was no less than 80%, the mortality at 500 ppm [4, 10] was 40% and the mortality at 50 ppm [5] was no less than 80%. For the same compound, the mortality at 20 µg/seedling [6] was no less than 80%, the mortality at 0.25 mg/seedling [6, 11] was 100% and the mortality at 0.5 mg/seedling [6, 11] was 100%. For the same compound, the mortality at 2 mg/seedling [6, 11] was 100%, the mortality at 20 mg/seedling [6, 11] was 100% and the pest or weed control at 0.005 mg/pot ([7]; rice soil drenching, 0.005 mg/pot (Table 13), read-out: Small brown planthopper (rice soil drenching), effect) was 30%. It also gave a pest or weed control at 0.01 mg/pot ([7]; rice soil drenching, 0.01 mg/pot (Table 13), read-out: Small brown planthopper (rice soil drenching), effect) of 80%, a pest or weed control at 0.05 mg/pot [7, 12] of 100% and a mortality at 0.05 mg/seedling ([7]; soil) of no less than 80%. For the same compound, the mortality at 0.005 mg/pot [7, 13] was 30%, the mortality at 0.01 mg/pot [7, 13] was 80% and the mortality at 0.05 mg/pot [7, 13] was 100%.
For `O=C(N=c1ccccn1Cc1ccc(Cl)nc1)C(F)(F)C(F)(F)F` [Compound 242, N-[1-((6-chloropyridin-3-yl)methyl)pyridin-2(1H)-ylidene]-2,2,3,3,3-pentafluoropropanamide], the mortality at 100 ppm [1, 8] was 100%, the mortality at 500 ppm [1, 8] was 100% and the mortality at 100 ppm ([1]; in Brassica oleracea, 72 h) was no less than 80%. The mortality at 500 ppm ([1]; in Brassica oleracea, 72 h) was no less than 80%, the “Insecticidal effects (mortality)” value [2] was 60 and the mortality at 1.25 ppm [3, 9] was 35%. For the same compound, the mortality at 5 ppm [3, 9] was 80%, the mortality at 20 ppm [3, 9] was 100% and the mortality at 100 ppm [3, 9] was 100%. It also gave a mortality at 20 ppm ([3]; in Cucumis sativus, 72 h) of no less than 80%, a mortality at 100 ppm ([3]; in Cucumis sativus, 72 h) of no less than 80% and a mortality at 500 ppm ([4]; 72 h) of no less than 80%. For the same compound, the mortality at 100 ppm [4, 10] was 76%, the mortality at 500 ppm [4, 10] was 100% and the mortality at 50 ppm [5] was no less than 80%. For the same compound, the mortality at 0.5 mg/seedling [6, 11] was 100%, the mortality at 2 mg/seedling [6, 11] was 100% and the mortality at 20 mg/seedling [6, 11] was 100%. It also gave a pest or weed control at 0.05 mg/pot [7, 12] of 100%, a mortality at 0.05 mg/seedling ([7]; soil) of no less than 80% and a mortality at 0.05 mg/pot [7, 13] of 100%.
Compound `O=C(N=c1ccccn1Cc1cnc(Cl)nc1)C(F)(F)F` [Compound 243, N-[1-((2-chloropyrimidin-5-yl)methyl)pyridin-2(1H)-ylidene]-2,2,2-trifluoroacetamide] has a mortality at 100 ppm [1, 8] of 100%, a mortality at 500 ppm [1, 8] of 100% and a mortality at 100 ppm ([1]; in Brassica oleracea, 72 h) of no less than 80%. The mortality at 500 ppm ([1]; in Brassica oleracea, 72 h) was no less than 80%, the “Insecticidal effects (mortality)” value [2] was 10 and the mortality at 1.25 ppm [3, 9] was 80%. For the same compound, the mortality at 5 ppm [3, 9] was 100%, the mortality at 100 ppm [3, 9] was 100% and the mortality at 500 ppm [3, 9] was 100%. It also gave a mortality at 20 ppm ([3]; in Cucumis sativus, 72 h) of no less than 80%, a mortality at 100 ppm ([3]; in Cucumis sativus, 72 h) of no less than 80% and a mortality at 500 ppm ([3]; in Cucumis sativus, 72 h) of no less than 80%. It also gave a mortality at 500 ppm ([4]; 72 h) of no less than 80%, a mortality at 500 ppm [4, 10] of 100% and a mortality at 50 ppm [5] of no less than 80%. The mortality at 0.5 mg/seedling [6, 11] was 100%, the mortality at 2 mg/seedling [6, 11] was 100% and the mortality at 20 mg/seedling [6, 11] was 100%. The pest or weed control at 0.05 mg/pot [7, 12] was 100%, the mortality at 0.05 mg/seedling ([7]; soil) was no less than 80% and the mortality at 0.05 mg/pot [7, 13] was 100%.
